According to patent US10441582B2 (priority 2016, dated 2019):
≈ marks a conversion by molar mass, not a printed value.

Legend:
[1] = G5, 20 mg/kg i.v., FIG. 2
Source text: Fifty 5-week-old BALB/c nude mice (produced by Central Lab Animal Inc., Korea) were purchased and acclimated for 1 week before use in the test.
The data are expressed as mean±S.D. The results were statistically analyzed by ONE-WAY ANOVA and Student's t-test methods.

[2] = system: solid tumor of MKN-45 cells; assay: Solid tumor of MKN-45 cells in BALB/c nude mice, intratumoral administration; assay type: in vivo; conditions: G5, 20 mg/kg intratumoral, FIG. 9
Method: After about 2 weeks, the ascites was collected and centrifuged at 2000 rpm, and the precipitate was washed twice and then stained with 0.4% […] blue, thereby obtaining 5×10^6 cells/100 μL.
In the first administration, a suspension volume of 50 μL/head was used regardless of body weight.
The medium dose used was a 2-fold dilution of the prepared injectable suspension, and the low dose used was a 4-fold dilution of the prepared injectable suspension.
The injectable suspension was dissolved by heating to a temperature of 42 to 45° C. on a water bath. Next, 20 μL of the solution was administered to the apex of the tumor by means of a 0.3 mL insulin syringe, and 10 μL of the solution was administered to each of three points of the bottom side of the tumor. Accordingly, a total of 50 μL of the solution was administered to the tumor.
On the final day of the test, the animals were biopsied and visually observed, and the mean weight of the tumors was measured.

[3] = system: MKN-45 cells; assay: MTT assay, cytotoxicity against MKN-45 cells; conditions: Homo sapiens, MKN-45, 24 h, read-out: IC50 (drug concentration that resulted in 50% of cell viability)
Method: The MKN-45 cell line was subcultured with RPMI1640 medium (supplemented with L-glutamine and 10% FBS) in a 5% CO2 incubator at 37° C. for 48 hours, and was then used in the test.
The cell line prepared in (2) above was added to each well.
Then, the cells were cultured in a 5% CO2 incubator at 37° C. for 24 hours, and 50 μL of MTT reagent was added thereto at a concentration of 2 mg/mL. Then, the cells were incubated in an incubator at 37° C. for 4 hours.
The cell culture was centrifuged to remove the supernatant, and 200 μL of DMSO was added to each well to dissolve the MTT-stained precipitate, after which the OD540 value at a wavelength of 540 nm was measured with an ELISA reader.

Structure (SMILES): CC(=O)O[C@H]1C(=O)[C@@]2(C)[C@H]([C@H](OC(=O)c3ccccc3)[C@]3(O)C[C@H](OC(=O)[C@H](O)[C@@H](NC(=O)c4ccccc4)c4ccccc4)C(C)=C1C3(C)C)[C@]1(OC(C)=O)CO[C@@H]1C[C@@H]2O [Paclitaxel]
- Decrease in body weight [1]: significant decrease in body weight
- State of solid tumor (photographs) ([2]; 2 weeks after administration): proliferated
- Proliferation of tumor cells [2]: ≥ 5 fold
- IC50 [3]: 0.1 µg/mL (≈ 0.117 µM)
